Measured values reported in paper PMC10665234, “Nutritional Supplementation and Enhanced Antioxidant Function by Dietary Intake of Selenoneine and Other Selenium Compounds in Red Seabream Pagrus major” (Marine Biotechnology (New York, N.y.), 2023).

What was measured:
Format in all cases: in vivo, red seabream Pagrus major
[1] = system: red seabream; assay: Oxidation-reduction potential (ORP) in white muscle; conditions: 2 weeks; 1 or 2 ppm in diet
Description: ORP was measured with ORP electrode (9300, Horiba, Kyoto, […]). The electrode was pierced into muscle and pressed gently until the potential stabilized for 60 s.

[2] = Selenoneine concentration in white muscle and blood cell by HPLC-ICP-MS (82Se); conditions: fish cultured for 4 weeks
Description: (§1) Red seabream fry (average body weight of 5.4 g) was obtained from private seed and seedling production company (Oita, Japan) and cultured for seven months up to average body weight of 250 g. Chemical composition of control diet was containing crude protein 50%; […]; Ca 2.3%; ash 16.0%; and phosphorus 1.5%. Each selenium-added diet was fed twice a day for 4 weeks in an amount of 1% of the average body weight. Body weight of fish in each tank was measured when fish were sampled and amount of diet was calculated according to the body weight of every sampling day. The added selenium concentrations in the diets were set in 0 ppm, 1 ppm, and 2 ppm selenium according to the previous study (Tohfuku et al. [2021]). After that, they were fed a commercial diet twice a day for 1 week. The test groups were the control group, the sodium selenite group (1 mg Se/kg feeding group and 2 mg Se/kg feeding group), the selenomethionine group (1 mg Se/kg feeding group and 2 mg Se/kg feeding group), and the selenoneine group (1 mg Se/kg feeding group and 2 mg Se/kg feeding group) were set. The number of fish raised was 15 from the start of rearing in each tank until the 2nd week, 10 from the 3rd to 4th week, and 5 in the 5th week. […] We reared red seabream by feeding of 1% dry pellet containing of sodium selenite, selenomethionine, or selenoneine of body weight twice a day for 4 weeks. After that, we replaced to 1% of commercial dry pellet of body weight twice a day for 1 week from the selenium supplementation. Average water temperature was 20.9 ℃ (19.0–23.9 ℃) and average dissolved oxygen was 7.41 mg/L. The body weight change of red seabream for 5 weeks is shown in Table S2.
(§2) Red seabream was anesthetized by adding 2 mL of anesthetic (1/100 volume of 2-methylquinoline dissolved in ethanol) to 1 L of seawater. A small amount of an anticoagulant (heparin sodium dissolved in physiological saline; 800 units/mL) was placed in a syringe in advance, and blood was collected from the caudal peduncle of each fish. The collected blood was centrifuged at 5000 rpm for 5 min (4 °C), divided into a plasma fraction and a precipitated fraction, and stored at − 50 °C. The precipitated fraction was used for analysis as the blood cell fraction.
Selenoneine was separated by chromatography using a Shodex GF-310 column (4.5 mm × 150 mm; Showa Denko, Tokyo, Japan) equilibrated with 100 mM ammonium formate buffer containing 0.1% (w/v) Igepal CA-630 (MP Biomedicals, CA, USA). The injection volume was at 10 μL. The mobile phase delivered at 0.5 mL/min isocratically. ^82Se was detected with high performance liquid chromatography inductively coupled plasma mass spectrometry (HPLC-ICP-MS; Agilent 1100 Series and Agilent 7500 Series, Agilent Technology) (Yamashita and Yamashita [2010]). During separation, selenoneine was eluted at a retention time of 200 s, and the selenium concentration was determined using selenoneine as a standard.

[3] = Total selenium concentrations in the tissues of red seabream after feeding selenium-supplemented dry pellet (fluorometric assay with 2,3-diamino-naphthalene)
Description: as §1, §2
Total selenium concentration was determined by fluorometric assay with 2,3-diamino-naphthalene, after digestion in 1.5 mL of nitric acid and perchloric acid (1:2 in volume) at 200–220 ℃ (Watkinson [1966]; Yamashita and Yamashita [2010]).

[4] = 5 weeks (4 weeks supplementation, then 1 week commercial diet), diet 1 mg Se/kg added
[5] = 5 weeks (4 weeks supplementation, then 1 week commercial diet), diet 2 mg Se/kg added

With `C[Se]CC[C@H](N)C(=O)O` [Selenomethionine, Seleno-L-methionine] the “ORP in white muscle compared to control” value [1] was “reduced ORP”.
For `O=[Se]([O-])[O-].[Na+].[Na+]` [Sodium selenite, reference compound], the “Selenoneine concentration, blood cell” value ([2]; diet 1 mg Se/kg added) was 1.98 ± 0.39 mg Se/kg, the “Selenoneine concentration, blood cell” value ([2]; diet 2 mg Se/kg added) was 1.91 ± 0.43 mg Se/kg and the “Selenoneine concentration, white muscle” value ([2]; diet 1 mg Se/kg added) was 0.019 ± 0.002 mg Se/kg. For the same compound, the “Selenoneine concentration, white muscle” value ([2]; diet 2 mg Se/kg added) was 0.020 ± 0.003 mg Se/kg, the “ORP in white muscle compared to control” value [1] was “reduced ORP” and the “Total selenium content, blood cell” value ([3]; 2 weeks, diet 1 mg Se/kg added) was 2.44 ± 0.27 mg Se/kg. The “Total selenium content, blood cell” value ([3]; 2 weeks, diet 2 mg Se/kg added) was 2.49 ± 0.29 mg Se/kg, the “Total selenium content, blood cell” value ([3]; 4 weeks, diet 1 mg Se/kg added) was 3.11 ± 0.40 mg Se/kg and the “Total selenium content, blood cell” value ([3]; 4 weeks, diet 2 mg Se/kg added) was 2.86 ± 0.17 mg Se/kg. The “Total selenium content, blood cell” value [3, 4] was 3.18 ± 0.76 mg Se/kg, the “Total selenium content, blood cell” value [3, 5] was 3.13 ± 0.48 mg Se/kg and the “Total selenium content, brain” value ([3]; 2 weeks, diet 1 mg Se/kg added) was 0.49 ± 0.03 mg Se/kg. The “Total selenium content, brain” value ([3]; 2 weeks, diet 2 mg Se/kg added) was 0.50 ± 0.03 mg Se/kg, the “Total selenium content, brain” value ([3]; 4 weeks, diet 1 mg Se/kg added) was 0.54 ± 0.07 mg Se/kg and the “Total selenium content, brain” value ([3]; 4 weeks, diet 2 mg Se/kg added) was 0.45 ± 0.10 mg Se/kg. The “Total selenium content, brain” value [3, 4] was 0.35 ± 0.09 mg Se/kg, the “Total selenium content, brain” value [3, 5] was 0.33 ± 0.11 mg Se/kg and the “Tissues in which total selenium was accumulated compared with the control group” value ([3]; diet 1 mg Se/kg and 2 mg Se/kg) was “white muscle, kidney, and hepatopancreas”. The “Total selenium content, heart” value ([3]; 2 weeks, diet 1 mg Se/kg added) was 1.05 ± 0.20 mg Se/kg, the “Total selenium content, heart” value ([3]; 2 weeks, diet 2 mg Se/kg added) was 0.99 ± 0.10 mg Se/kg and the “Total selenium content, heart” value ([3]; 4 weeks, diet 1 mg Se/kg added) was 1.27 ± 0.11 mg Se/kg. The “Total selenium content, heart” value ([3]; 4 weeks, diet 2 mg Se/kg added) was 1.22 ± 0.08 mg Se/kg, the “Total selenium content, heart” value [3, 4] was 1.20 ± 0.09 mg Se/kg and the “Total selenium content, heart” value [3, 5] was 1.04 ± 0.07 mg Se/kg. The “Total selenium content, hepatopancreas” value ([3]; 2 weeks, diet 1 mg Se/kg added) was 1.12 ± 0.16 mg Se/kg, the “Total selenium content, hepatopancreas” value ([3]; 2 weeks, diet 2 mg Se/kg added) was 1.31 ± 0.15 mg Se/kg and the “Total selenium content, hepatopancreas” value ([3]; 4 weeks, diet 1 mg Se/kg added) was 1.40 ± 0.19 mg Se/kg. The “Total selenium content, hepatopancreas” value ([3]; 4 weeks, diet 2 mg Se/kg added) was 1.45 ± 0.13 mg Se/kg, the “Total selenium content, hepatopancreas” value [3, 4] was 1.31 ± 0.23 mg Se/kg and the “Total selenium content, hepatopancreas” value [3, 5] was 1.28 ± 0.18 mg Se/kg. For the same compound, the “Total selenium content, kidney” value ([3]; 2 weeks, diet 1 mg Se/kg added) was 2.46 ± 0.31 mg Se/kg, the “Total selenium content, kidney” value ([3]; 2 weeks, diet 2 mg Se/kg added) was 2.50 ± 0.19 mg Se/kg and the “Total selenium content, kidney” value ([3]; 4 weeks, diet 1 mg Se/kg added) was 3.07 ± 0.24 mg Se/kg. For the same compound, the “Total selenium content, kidney” value ([3]; 4 weeks, diet 2 mg Se/kg added) was 3.06 ± 0.34 mg Se/kg, the “Total selenium content, kidney” value [3, 4] was 2.60 ± 0.32 mg Se/kg and the “Total selenium content, kidney” value [3, 5] was 2.71 ± 0.39 mg Se/kg. For the same compound, the “Total selenium content, spleen” value ([3]; 2 weeks, diet 1 mg Se/kg added) was 2.58 ± 0.16 mg Se/kg, the “Total selenium content, spleen” value ([3]; 2 weeks, diet 2 mg Se/kg added) was 2.80 ± 0.25 mg Se/kg and the “Total selenium content, spleen” value ([3]; 4 weeks, diet 1 mg Se/kg added) was 3.09 ± 0.47 mg Se/kg. For the same compound, the “Total selenium content, spleen” value ([3]; 4 weeks, diet 2 mg Se/kg added) was 2.94 ± 0.22 mg Se/kg, the “Total selenium content, spleen” value [3, 4] was 2.80 ± 0.28 mg Se/kg and the “Total selenium content, spleen” value [3, 5] was 2.47 ± 0.35 mg Se/kg. For the same compound, the “Total selenium content, white muscle” value ([3]; 2 weeks, diet 1 mg Se/kg added) was 0.39 ± 0.02 mg Se/kg, the “Total selenium content, white muscle” value ([3]; 2 weeks, diet 2 mg Se/kg added) was 0.40 ± 0.02 mg Se/kg and the “Total selenium content, white muscle” value ([3]; 4 weeks, diet 1 mg Se/kg added) was 0.39 ± 0.01 mg Se/kg. The “Total selenium content, white muscle” value ([3]; 4 weeks, diet 2 mg Se/kg added) was 0.39 ± 0.03 mg Se/kg, the “Total selenium content, white muscle” value [3, 4] was 0.38 ± 0.06 mg Se/kg and the “Total selenium content, white muscle” value [3, 5] was 0.36 ± 0.05 mg Se/kg.
